A value given as a limit tells only on which side of the number the result lay.

Ki and IC50 data for 16 molecules are collected here from US7504420B2, “Compounds which inhibit beta-secretase activity and methods of use” (CoMentis, Inc., priority 2005, dated 2009).

In one assay the target is T1, memapsin 1 (Homo sapiens, UniProt Q9Y5Z0).
T1 sequence (Q9Y5Z0 63-518): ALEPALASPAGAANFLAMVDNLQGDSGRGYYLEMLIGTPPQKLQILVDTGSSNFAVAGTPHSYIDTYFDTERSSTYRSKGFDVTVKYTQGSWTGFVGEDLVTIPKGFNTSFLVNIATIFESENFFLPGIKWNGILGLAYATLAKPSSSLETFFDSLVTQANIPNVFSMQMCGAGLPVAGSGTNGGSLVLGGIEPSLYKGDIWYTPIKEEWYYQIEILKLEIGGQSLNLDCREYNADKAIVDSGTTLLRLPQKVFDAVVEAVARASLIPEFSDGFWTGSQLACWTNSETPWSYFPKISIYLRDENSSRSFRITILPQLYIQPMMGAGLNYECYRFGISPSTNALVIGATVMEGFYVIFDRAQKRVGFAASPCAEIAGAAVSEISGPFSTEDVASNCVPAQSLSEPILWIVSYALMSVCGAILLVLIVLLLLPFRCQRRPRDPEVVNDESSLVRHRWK
The assay can be described thus: Inhibition of memapsin 1 catalytic activity (Ki). The assay is classed as biochemical. Particulars: memapsin 1, pH 4.0, 37° C.; read-out: M1K. How it is done:
A substrate peptide NH3-ELDLAVEFWHDR-CO2 (SEQ ID NO.:1) (used for inhibition assay of memapsin 2, memapsin 1, and cathepsin D) was dissolved at 2 mg/ml in DMSO and diluted 1:100 in 0.1 M sodium acetate, pH 4.0 just prior to assay. Inhibitor dissolved in DMSO was diluted into 0.1 M sodium acetate, pH 4.0 (1:100 dilution). A […] aliquot of the inhibitor solution in pH 4 buffer was combined with […] of 0.1 M sodium acetate containing 100-200 nM of memapsin 1, memapsin 2, or cathepsin D. Following a pre-incubation at 37° C., the proteolytic assay was initated by addition of […] of the substrate diluted into pH 4 buffer, and incubation continued at 37° C. Aliquots were removed at time intervals, and combined with an equal volume of MALDI-TOF matrix (α-hydroxycinnamic acid in acetone, 20 mg/ml) and immediately spotted in duplicate onto a stainless-steel MALDI sample plate. MALDI-TOF mass spectrometry was performed on a PE Biosystems Voyager DE instrument at the Molecular Biology Resource Center on campus. The instrument was operated at 25,000 accelerating volts in positive mode with a 150 ns delay. Ions with a mass-to-charge ratio (m/z) were detected in the range of 650-2000 atomic mass units. Data were analyzed by the Voyager Data Explorer module to obtain ion intensity data for mass species of substrates and corresponding products in a given mixture. Relative product formation was calculated as the ratio of signal intensity of the product to the sum of signal intensities of both product and the corresponding substrate. Relative product formed per unit time was obtained from non-linear regression analysis of the data representing the initial 15% formation of product using the model: 1−e^−kT, where k was the relative hydrolytic rate constant and T was time in seconds. Alternatively, relative hydrolytic rates were determined using a fluorogenic cleavage assay (Ermolieff, J. et al., Biochemistry, 39: 12450-12456 (2000)). Initial rates from either method were expressed relative to uninhibited controls and the inhibition constant Ki was determined by a non-linear fit to a tight-binding model of competitive inhibition (Bieth, J., Bayer-Symposium V: Proteinase Inhibitors, pp 463-469, Spinger-Varlag, Berlin (1994)). Results are shown in Table 1 above (M2K, CDK, and M1K columns represent, respectively, the K1 values obtained for memapsin 2, cathepsin D and memapsin 1).

In another assay the target is memapsin 2 (Homo sapiens, UniProt P56817). The assay can be described thus: Inhibition of memapsin 2 catalytic activity (Ki). It counts as biochemical. Particulars: memapsin 2, pH 4, 37° C.; read-out: M2K. In short, it runs like this: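 Run at 37 °C and pH 4: compound and enzyme pre-incubated 20 min before FS-2 fluorogenic substrate started hydrolysis,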
For assay [1], the system named is Aβ production in Chinese hamster ovary cells that over-express human APP695 with the London and Swedish mutations. The assay can be described thus: Cellular Aβ IC50 determination (Aβ40 sandwich ELISA). The note with it: Cricetulus griseus, CHO, 24 h, read-out: Cell, Aβ40, CHO cells over-expressing human APP695 (London and Swedish mutations), 24 h. (ELISA stands for enzyme-linked immunosorbent assay.)
Experimental: The potency of compounds against memapsin 2 catalytic activity was determined in a cellular assay of Aβ production. […] Compounds are dissolved in DMSO to concentrations near 1 mM, and diluted into culture media to a final concentration near 4 μM (final 0.4% DMSO). Compounds were diluted serially and applied to cells in multi-well plates 48 h after seeding. Incubation was continued in 5% CO2 at 37 degrees C. for 24 h. Aliquots were removed and assayed for Aβ40 content using a sandwich ELISA (BioSource International). Amount of Aβ40 over the range of concentration of compounds, relative to control incubations, were fit to a 4-parameter IC50 model.

For a further assay, the target named is cathepsin D (Homo sapiens, UniProt P07339). The assay can be described thus: Inhibition of cathepsin D catalytic activity (Ki). It counts as biochemical. Particulars: pH 4.0, 37° C., read-out: CDK.
cathepsin D, sequence (P07339 65-412, species assumed): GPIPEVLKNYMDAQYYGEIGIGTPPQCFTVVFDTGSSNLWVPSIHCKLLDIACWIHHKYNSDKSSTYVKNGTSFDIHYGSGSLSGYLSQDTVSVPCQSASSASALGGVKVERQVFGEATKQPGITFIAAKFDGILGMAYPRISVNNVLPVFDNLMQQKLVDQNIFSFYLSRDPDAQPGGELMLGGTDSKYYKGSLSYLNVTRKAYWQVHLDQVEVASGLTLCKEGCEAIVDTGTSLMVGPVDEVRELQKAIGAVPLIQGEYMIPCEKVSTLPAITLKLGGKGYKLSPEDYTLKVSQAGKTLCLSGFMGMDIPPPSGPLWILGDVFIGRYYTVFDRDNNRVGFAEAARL

memapsin 2, sequence (P56817 46-501): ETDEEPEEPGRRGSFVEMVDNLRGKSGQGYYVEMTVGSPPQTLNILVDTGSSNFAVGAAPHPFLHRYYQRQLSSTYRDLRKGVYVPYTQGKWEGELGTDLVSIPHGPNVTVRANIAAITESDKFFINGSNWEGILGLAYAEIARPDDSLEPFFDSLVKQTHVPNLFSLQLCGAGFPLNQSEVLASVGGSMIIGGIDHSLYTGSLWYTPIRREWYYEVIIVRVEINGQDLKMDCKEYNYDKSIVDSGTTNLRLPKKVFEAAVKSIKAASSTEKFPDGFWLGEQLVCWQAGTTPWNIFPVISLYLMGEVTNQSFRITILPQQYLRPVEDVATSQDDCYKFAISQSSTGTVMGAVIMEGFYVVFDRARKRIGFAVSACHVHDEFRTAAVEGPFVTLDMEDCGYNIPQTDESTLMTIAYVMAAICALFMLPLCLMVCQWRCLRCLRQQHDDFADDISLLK

For `CC(NC(=O)c1cc(C(=O)NC(Cc2ccccc2)C(O)CNN(C)c2ccccc2)cc(N(C)S(C)(=O)=O)c1)c1ccccc1` (stereo not shown) [N1-(3-hydroxy-4-(2-methyl-2-phenylhydrazinyl)-1-phenylbutan-2-yl)-5-(N-methylmethylsulfonamido)-N3-(1-phenylethyl)isophthalamide], the figures for the Ki on memapsin 1, at memapsin 2 and at cathepsin D were > 501 nM, 301 to 500 nM and > 501 nM, respectively. Also, the IC50 in assay [1] is > 5000 nM.

Take `COc1cccc(CNCC(O)C(Cc2ccccc2)NC(=O)c2cc(C(=O)NC(C)c3cccnc3)cc(N(C)S(C)(=O)=O)c2)c1` (stereo not shown) [N1-(3-hydroxy-4-(3-methoxybenzylamino)-1-phenylbutan-2-yl)-5-(N-methylmethylsulfonamido)-N3-(1-(pyridin-3-yl)ethyl)isophthalamide]: the Ki is > 501 nM on memapsin 1, < 300 nM at memapsin 2 and > 501 nM at cathepsin D. Moreover, the IC50 in assay [1] was < 1000 nM.

Consider `CCC(NC(=O)c1cc(C(=O)NC(Cc2ccccc2)C(O)CNCc2cccc(OC)c2)cc(N(C)S(C)(=O)=O)c1)c1ccccc1` (stereo not shown) [N1-(3-hydroxy-4-(3-methoxybenzylamino)-1-phenylbutan-2-yl)-5-(N-methylmethylsulfonamido)-N3-(1-phenylpropyl)isophthalamide], for which the Ki on memapsin 1, at memapsin 2 and on cathepsin D was < 300 nM in each case. Besides, the IC50 in assay [1] was < 1000 nM.

`COc1cccc(CNCC(O)C(Cc2ccccc2)NC(=O)c2cc(C(=O)NC(C)c3ccccc3)cc([N+](=O)[O-])c2)c1` (stereo not shown) [N1-(3-hydroxy-4-(3-methoxybenzylamino)-1-phenylbutan-2-yl)-5-nitro-N3-(1-phenylethyl)isophthalamide]: the Ki was < 300 nM on memapsin 1, 301 to 500 nM on memapsin 2 and < 300 nM on cathepsin D. In assay [1], the IC50 is < 1000 nM.

`COc1cccc(CNCC(O)C(Cc2ccccc2)NC(=O)c2cccc(C(=O)NC(C)c3cccnc3)c2)c1` (stereo not shown) [N1-(3-hydroxy-4-(3-methoxybenzylamino)-1-phenylbutan-2-yl)-N3-(1-(pyridin-3-yl)ethyl)isophthalamide]: the Ki on memapsin 1, on memapsin 2 and at cathepsin D was > 501 nM in each case. For the same molecule, the IC50 in assay [1] is > 5000 nM.

In the case of `COc1cccc(CNCC(O)C(Cc2ccccc2)NC(=O)c2cc(C(=O)NCc3cccc(OC)c3)cc(N(C)S(C)(=O)=O)c2)c1` (stereo not shown) [N1-(3-hydroxy-4-(3-methoxybenzylamino)-1-phenylbutan-2-yl)-N3-(3-methoxybenzyl)-5-(N-methylmethylsulfonamido)isophthalamide], the Ki on memapsin 1 was > 501 nM; at memapsin 2, < 300 nM; at cathepsin D, < 300 nM. Also, in assay [1], the IC50 fell in the range of 1000 to 5000 nM.

Take `COc1cccc(CNCC(O)C(Cc2ccccc2)NC(=O)c2cccc(C(=O)N(C)Cc3cc(C)no3)c2)c1` (stereo not shown) [N1-(3-hydroxy-4-(3-methoxybenzylamino)-1-phenylbutan-2-yl)-N3-methyl-N3-((3-methylisoxazol-5-yl)methyl)isophthalamide]: the Ki on memapsin 1 is > 501 nM; on memapsin 2, > 501 nM; at cathepsin D it was < 300 nM. For the same molecule, the IC50 in assay [1] is > 5000 nM.

Consider `COc1cccc(CNCC(O)C(Cc2ccccc2)NC(=O)c2cccc(C(=O)N(C)Cc3nc(C)cs3)c2)c1` (stereo not shown) [N1-(3-hydroxy-4-(3-methoxybenzylamino)-1-phenylbutan-2-yl)-N3-methyl-N3-((4-methylthiazol-2-yl)methyl)isophthalamide], for which the Ki was > 501 nM on memapsin 1, < 300 nM at memapsin 2 and < 300 nM on cathepsin D. Moreover, the IC50 in assay [1] was < 1000 nM.

As to `Cc1cccc(CNCC(O)C(Cc2ccccc2)NC(=O)c2cc(C(=O)NC(C)c3ccccc3)cc(N(C)S(C)(=O)=O)c2)c1` (stereo not shown) [N1-(3-hydroxy-4-(3-methylbenzylamino)-1-phenylbutan-2-yl)-5-(N-methylmethylsulfonamido)-N3-(1-phenylethyl)isophthalamide], the figures for the Ki at memapsin 1, at memapsin 2 and on cathepsin D were 301 to 500 nM, < 300 nM and < 300 nM, respectively. Further, in assay [1], the IC50 was < 1000 nM.

As for `Cc1cccc(CNCC(O)C(Cc2ccccc2)NC(=O)c2cccc(C(=O)N(C)Cc3nc(C)cs3)c2)c1` (stereo not shown) [N1-(3-hydroxy-4-(3-methylbenzylamino)-1-phenylbutan-2-yl)-N3-methyl-N3-((4-methylthiazol-2-yl)methyl)isophthalamide], the Ki on memapsin 1 is > 501 nM; at memapsin 2 it was > 501 nM; at cathepsin D, < 300 nM. Besides, the IC50 in assay [1] is < 1000 nM.

With `Cc1csc(CNCC(O)C(Cc2ccccc2)NC(=O)c2cc(C(=O)NC(C)c3ccccc3)cc(N(C)S(C)(=O)=O)c2)n1` (stereo not shown) [N1-(3-hydroxy-4-((4-methylthiazol-2-yl)methylamino)-1-phenylbutan-2-yl)-5-(N-methylmethylsulfonamido)-N3-(1-phenylethyl)isophthalamide], the Ki on memapsin 1 was > 501 nM; at memapsin 2 it was < 300 nM; on cathepsin D, 301 to 500 nM. In addition, in assay [1], the IC50 was < 1000 nM.

Consider `Cc1csc(CN(C)C(=O)c2cccc(C(=O)NC(Cc3ccccc3)C(O)CNCc3cncc(C(C)C)c3)c2)n1` (stereo not shown) [N1-(3-hydroxy-4-((5-isopropylpyridin-3-yl)methylamino)-1-phenylbutan-2-yl)-N3-methyl-N3-((4-methylthiazol-2-yl)methyl)isophthalamide], for which the Ki was 301 to 500 nM on memapsin 1, < 300 nM on memapsin 2 and < 300 nM on cathepsin D. Further, the IC50 in assay [1] is < 1000 nM.

In the case of `Cc1cncc(CNCC(O)C(Cc2ccccc2)NC(=O)c2cc(C(=O)NC(C)c3ccccc3)cc(N(C)S(C)(=O)=O)c2)c1` (stereo not shown) [N1-(3-hydroxy-4-((5-methylpyridin-3-yl)methylamino)-1-phenylbutan-2-yl)-5-(N-methylmethylsulfonamido)-N3-(1-phenylethyl)isophthalamide], the Ki at memapsin 1 was 301 to 500 nM; at memapsin 2, < 300 nM; on cathepsin D, < 300 nM. Further, the IC50 in assay [1] was < 1000 nM.

Take `Cc1cccc(CNCC(O)C(Cc2ccccc2)NC(=O)c2cc(C(=O)NC(C)c3ccccc3)cc(N(C)S(C)(=O)=O)c2)n1` (stereo not shown) [N1-(3-hydroxy-4-((6-methylpyridin-2-yl)methylamino)-1-phenylbutan-2-yl)-5-(N-methylmethylsulfonamido)-N3-(1-phenylethyl)isophthalamide]: the Ki on memapsin 1 is 301 to 500 nM; at memapsin 2 it was 301 to 500 nM; at cathepsin D it was > 501 nM. The IC50 in assay [1] is < 1000 nM.

On to `CC(NCC(O)C(Cc1ccccc1)NC(=O)c1cc(C(=O)NC(C)c2ccccc2)cc(N(C)S(C)(=O)=O)c1)c1ccc(F)cc1` (stereo not shown) [N1-(4-(1-(4-fluorophenyl)ethylamino)-3-hydroxy-1-phenylbutan-2-yl)-5-(N-methylmethylsulfonamido)-N3-(1-phenylethyl)isophthalamide], for which the Ki on memapsin 1, on memapsin 2 and at cathepsin D was < 300 nM in each case. The IC50 in assay [1] was < 1000 nM.

As to `CC(NC(=O)c1cc(C(=O)NC(Cc2ccccc2)C(O)CNCc2cc(F)cc(F)c2)cc(N(C)S(C)(=O)=O)c1)c1ccccc1` (stereo not shown) [N1-(4-(3,5-difluorobenzylamino)-3-hydroxy-1-phenylbutan-2-yl)-5-(N-methylmethylsulfonamido)-N3-(1-phenylethyl)isophthalamide], the Ki at memapsin 1 was > 501 nM; at memapsin 2 it was < 300 nM; at cathepsin D, < 300 nM. In addition, the IC50 in assay [1] is < 1000 nM.
